pEC50: −log10 of the molar value.

The target of the assay is T1, human M4 muscarinic acetylcholine receptor (Homo sapiens, UniProt P08173).
T1 construct: expressed in transfected cells; host or cells: CHO-K1
T1 sequence (P08173 1-479): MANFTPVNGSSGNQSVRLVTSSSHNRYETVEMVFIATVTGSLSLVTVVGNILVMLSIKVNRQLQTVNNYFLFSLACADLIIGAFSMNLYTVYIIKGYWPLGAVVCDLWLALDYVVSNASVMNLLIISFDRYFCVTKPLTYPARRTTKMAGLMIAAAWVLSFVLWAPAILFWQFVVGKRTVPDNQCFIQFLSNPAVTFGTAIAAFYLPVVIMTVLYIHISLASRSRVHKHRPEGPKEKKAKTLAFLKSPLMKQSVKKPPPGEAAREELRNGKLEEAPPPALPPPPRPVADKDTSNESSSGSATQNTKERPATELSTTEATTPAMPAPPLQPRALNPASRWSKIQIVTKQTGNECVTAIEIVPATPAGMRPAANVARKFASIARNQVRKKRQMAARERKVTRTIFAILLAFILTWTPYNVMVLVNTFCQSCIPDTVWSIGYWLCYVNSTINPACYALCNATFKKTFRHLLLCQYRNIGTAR
Put plainly: human FLIPR-based M4 PAM assay (Ca2+ mobilization, CHO-K1 cells with human M4 receptor and Gαqi5). Format: cell-based. Particulars: acetylcholine at 20% of maximum response, read-out: M4 PAM IP. In outline: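 Calcium-mobilization (FLIPR) readout in dye-loaded CHO-K1 cells co-expressing human M4 receptor and Gαqi5. Potentiation measured against acetylcholine at a concentration giving 20% of maximal response, with an optional 70% addition; the reported value is the curve inflection point from a 4-parameter logistic fit.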
`Cc1cc2c(nc1N1CCC(Oc3cnc4[nH]ccc4c3)CC1)CNC2=O` [Example 70, 2-(4-((1H-pyrrolo[2,3-b]pyridin-5-yl)oxy)piperidin-1-yl)-3-methyl-6,7-dihydro-5H-pyrrolo[3,4-b]pyridin-5-one]: the pEC50 was 7.10. As for `Cc1cc2c(nc1N1CCC(Oc3cnn(C)c3)CC1)CNC2=O` [Example 206A, 3-methyl-2-(4-((1-methyl-1H-pyrazol-4-yl)oxy)piperidin-1-yl)-6,7-dihydro-5H-pyrrolo[3,4-b]pyridin-5-one], the figure is 6.59; as for `Cc1cc2c(nc1N1CCC(Oc3ccc4c(c3)CCOC4=O)CC1)CNC2=O` [Example 121, 3-methyl-2-(4-((1-oxoisochroman-6-yl)oxy)piperidin-1-yl)-6,7-dihydro-5H-pyrrolo[3,4-b]pyridin-5-one], 5.72; as for `COc1ccc(O[C@@H]2CCN(c3nc4c(cc3C)C(=O)N(C)C4)C[C@@H]2F)cn1` [Example 33, 2-((3S,4R)-3-fluoro-4-((6-methoxypyridin-3-yl)oxy)piperidin-1-yl)-3,6-dimethyl-6,7-dihydro-5H-pyrrolo[3,4-b]pyridin-5-one], 7.66. In the case of `CO[C@H]1Cc2ccc(OC3CCN(c4nc5c(c(C)c4C)C(=O)N(CCO)C5)CC3)cc2C1` [Example 267D, (S)-6-(2-hydroxyethyl)-2-(4-((2-methoxy-2,3-dihydro-1H-inden-5-yl)oxy)piperidin-1-yl)-3,4-dimethyl-6,7-dihydro-5H-pyrrolo[3,4-b]pyridin-5-one], the pEC50 is 7.06. In the case of `Cc1cc2c(nc1N1CCC(Oc3ccc(C#N)cc3)CC1)CNC2=O` [Example 84, 4-((1-(3-methyl-5-oxo-6,7-dihydro-5H-pyrrolo[3,4-b]pyridin-2-yl)piperidin-4-yl)oxy)benzonitrile] it was 6.64.

`Cc1cc2c(nc1N1CCC(Oc3ccc4ccc(=O)[nH]c4c3)CC1)CNC2=O` [Example 128, 7-((1-(3-methyl-5-oxo-6,7-dihydro-5H-pyrrolo[3,4-b]pyridin-2-yl)piperidin-4-yl)oxy)quinolin-2(1H)-one]: the pEC50 was 5.62. As for `COCCOCc1ccc(OC2CCN(c3nc4c(cc3C)C(=O)NC4)CC2)cn1` [Example 204, 2-(4-((6-((2-methoxyethoxy)methyl)pyridin-3-yl)oxy)piperidin-1-yl)-3-methyl-6,7-dihydro-5H-pyrrolo[3,4-b]pyridin-5-one], the figure is 5.95; as for `Cc1c(N2CCC(Oc3ccc4c(c3)C[C@@H](O)C4)CC2)nc2c(c1C)C(=O)NC2` [Example 334B, (S)-2-(4-((2-hydroxy-2,3-dihydro-1H-inden-5-yl)oxy)piperidin-1-yl)-3,4-dimethyl-6,7-dihydro-5H-pyrrolo[3,4-b]pyridin-5-one], 7.42. In the case of `Cc1cc2c(nc1N1CCC(OCC3(C(F)(F)F)CC3)CC1)CNC2=O` [Example 189, 3-methyl-2-(4-((1-(trifluoromethyl)cyclo-propyl)methoxy)piperidin-1-yl)-6,7-dihydro-5H-pyrrolo[3,4-b]pyridin-5-one] it was 6.58; in that of `Cc1cc2c(nc1N1CCC(Oc3ccc4c(c3)C[C@@H](O)C4)CC1)CNC2=O` (single isomer, unassigned) [Example 324A], 7.66; in that of `Cc1cc2c(nc1N1CC[C@@H](Oc3cccc4c3COC4)[C@@H](F)C1)CNC2=O` [Example 39, 2-((3S,4R)-4-((1,3-dihydro-2-benzofuran-4-yl)oxy)-3-fluoropiperidin-1-yl)-3-methyl-6,7-dihydro-5H-pyrrolo[3,4-b]pyridin-5-one], 5.80. In the case of `Cc1c(N2CCC(Oc3ccc(F)cc3)CC2)nc2c(c1C)C(=O)N(CCO)C2` [Example 266, 2-(4-(4-fluorophenoxy)piperidin-1-yl)-6-(2-hydroxyethyl)-3,4-dimethyl-6,7-dihydro-5H-pyrrolo[3,4-b]pyridin-5-one] it was 6.98; in that of `Cc1cc2c(nc1N1CCC(Oc3ccncc3)CC1)CNC2=O` [Example 77, 3-methyl-2-(4-(pyridin-4-yloxy)piperidin-1-yl)-6,7-dihydro-5H-pyrrolo[3,4-b]pyridin-5-one], 6.67; in that of `CCN1C(=O)c2c(nc(N3CCC(Oc4ccc5c(c4)COC5)CC3)c(C)c2C)[C@H]1CO` [Example 351A, (S)-2-(4-((1,3-dihydroisobenzofuran-5-yl)oxy)piperidin-1-yl)-6-ethyl-7-(hydroxymethyl)-3,4-dimethyl-6,7-dihydro-5H-pyrrolo[3,4-b]pyridin-5-one], 7.72. With `Cc1cc2c(nc1N1CC[C@H](Oc3cccc(C#N)c3)[C@H](F)C1)CNC2=O` [Example 19, 3-(((3R,4S)-3-fluoro-1-(3-methyl-5-oxo-6,7-dihydro-5H-pyrrolo[3,4-b]pyridin-2-yl)piperidin-4-yl)oxy)benzonitrile], the pEC50 was 7.24.

In the case of `Cc1cc2c(nc1N1CCC(Oc3cnc4c(c3)CCC4)CC1)CNC2=O` [Example 59, 2-(4-((6,7-dihydro-5H-cyclopenta[b]pyridin-3-yl)oxy)piperidin-1-yl)-3-methyl-6,7-dihydro-5H-pyrrolo[3,4-b]pyridin-5-one], the pEC50 was 6.91. Regarding `Cc1cc2c(nc1N1CCC(Oc3cccc(C#N)c3)CC1)C(C)N(C)C2=O` (stereo not drawn) [Example 13, 3-((1-(3,6,7-trimethyl-5-oxo-6,7-dihydro-5H-pyrrolo[3,4-b]pyridin-2-yl)piperidin-4-yl)oxy)benzonitrile], the pEC50 is 6.76. As for `CO[C@H]1Cc2ccc(OC3CCN(c4nc5c(cc4C)C(=O)NC5)CC3)cc2C1` [Example 162B, (S)-2-(4-((2-methoxy-2,3-dihydro-1H-inden-5-yl)oxy)piperidin-1-yl)-3-methyl-6,7-dihydro-5H-pyrrolo[3,4-b]pyridin-5-one], the figure is 7.33; as for `Cc1cc2c(nc1N1CCC(Oc3ccn4ccnc4c3)CC1)CNC2=O` [Example 140, 2-(4-(imidazo[1,2-a]pyridin-7-yloxy)piperidin-1-yl)-3-methyl-6,7-dihydro-5H-pyrrolo[3,4-b]pyridin-5-one], 5.33. For the molecule `Cc1cc2c(nc1N1CCC(Oc3cnn(C)c3)CC1)[C@@H](CO)N(C)C2=O` [Example 357, (S)-7-(hydroxymethyl)-3,6-dimethyl-2-(4-((1-methyl-1H-pyrazol-4-yl)oxy)piperidin-1-yl)-6,7-dihydro-5H-pyrrolo[3,4-b]pyridin-5-one], the pEC50 was 7.06.

As to `Cc1cc2c(nc1N1CC[C@@H](Oc3cnc4c(c3)COC4)[C@@H](F)C1)CNC2=O` [Example 65, 2-((3S,4R)-4-((5,7-dihydrofuro[3,4-b]pyridin-3-yl)oxy)-3-fluoropiperidin-1-yl)-3-methyl-6,7-dihydro-5H-pyrrolo[3,4-b]pyridin-5-one], the pEC50 is 7.12. Turning to `COc1ccc(OC2CCN(c3nc4c(cc3C)C(=O)N(C(C)C)C4)CC2)cn1` [Example 245, 6-isopropyl-2-(4-((6-methoxypyridin-3-yl)oxy)piperidin-1-yl)-3-methyl-6,7-dihydro-5H-pyrrolo[3,4-b]pyridin-5-one], the pEC50 is 7.12.

Turning to `COc1ccc(OC2CCN(c3nc4c(c(C)c3C)C(=O)NC4)CC2)cn1` [Example 218, 2-(4-((6-Methoxypyridin-3-yl)oxy)piperidin-1-yl)-3,4-dimethyl-6,7-dihydro-5H-pyrrolo[3,4-b]pyridin-5-one], the pEC50 was 7.42.

Regarding `Cc1cc2c(nc1N1CC[C@@H](Oc3ccc4c(c3)COC4)[C@@H](F)C1)[C@@H](CO)N(C)C2=O` [Example 278, (S)-2-((3S,4R)-4-((1,3-dihydro-2-benzofuran-5-yl)oxy)-3-fluoropiperidin-1-yl)-7-(hydroxymethyl)-3,6-dimethyl-6,7-dihydro-5H-pyrrolo[3,4-b]pyridin-5-one], the pEC50 is 7.72. In the case of `Cc1cc2c(nc1N1CCC(Oc3cnn(CC4CC4)c3)CC1)CNC2=O` [Example 321A, 2-(4-((1-(cyclopropylmethyl)-1H-pyrazol-4-yl)oxy)piperidin-1-yl)-3-methyl-6,7-dihydro-5H-pyrrolo[3,4-b]pyridin-5-one] it was 6.36; in that of `COCCN1Cc2nc(N3CCC(Oc4ccc5c(c4)COC5)CC3)c(C)cc2C1=O` [Example 263A, 2-(4-((1,3-dihydro-2-benzofuran-5-yl)oxy)piperidin-1-yl)-6-(2-methoxyethyl)-3-methyl-6,7-dihydro-5H-pyrrolo[3,4-b]pyridin-5-one], 7.40; in that of `Cc1cc2c(nc1N1CCC(Oc3ccc4c(c3)CNC4)CC1)CNC2=O` [Example 147, 2-(4-(isoindolin-5-yloxy)piperidin-1-yl)-3-methyl-6,7-dihydro-5H-pyrrolo[3,4-b]pyridin-5-one], 6.50. As for `Cc1cc2c(nc1N1CCC(Oc3ccc4c(cnn4C)c3)CC1)[C@@H](CO)N(C)C2=O` [Example 359, (S)-7-(hydroxymethyl)-3,6-dimethyl-2-(4-((1-methyl-1H-indazol-5-yl)oxy)piperidin-1-yl)-6,7-dihydro-5H-pyrrolo[3,4-b]pyridin-5-one], the figure is 7.43; as for `Cc1cc2c(nc1N1CCC(Oc3ccc4c(cnn4C)c3)CC1)CN(CCO)C2=O` [Example 239A, 6-(2-hydroxyethyl)-3-methyl-2-(4-((1-methyl-1H-indazol-5-yl)oxy)piperidin-1-yl)-6,7-dihydro-5H-pyrrolo[3,4-b]pyridin-5-one], 7.07.

The values are drawn from US10329289B2, “6,7-dihydro-5H-pyrrolo[3,4-B]pyridin-5-one allosteric modulators of the M4 muscarinic acetylcholine receptor” (Merck Sharp & Dohme Corp., priority 2015, dated 2019).
